pIC50: −log10 of the molar value.
The compounds below were run on IFNα-induced pSTAT5 (pY694) in CD3 positive cells of human whole blood (assay: IFNα-Induced STAT Phosphorylation in Human Whole Blood). Settings: Homo sapiens, 1 h compound incubation, 1000 U/mL recombinant human IFNα A/D for 15 min, pSTAT5 in CD3 positive population, read-out: Human WB IFNα-Induced Stat Phosph. (IC50).
Assay type: cell-based
Outline: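 Read-out is median fluorescence intensity of pSTAT5 (pY694) in the CD3-positive gate, by flow cytometry after fix/lyse and permeabilization. Before that, whole human blood anticoagulated with EDTA or ACD-A received compound for an hour and 1000 U/mL IFNα A/D for 15 min.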

| pIC50 | Compound |
| --- | --- |
| 7.89 | COc1c(Nc2cc(NC(=O)C3CC3)ncc2C(N)=O)cccc1-c1nc(CN2CCOCC2)no1 [Example 576, 6-(cyclopropanecarboxamido)-4-((2-methoxy-3-(3-(morpholinomethyl)-1,2,4-oxadiazol-5-yl)phenyl)amino)nicotinamide] |
| 7.05 | COc1c(Nc2cc(NC(=O)C3CC3)nnc2C(N)=O)cccc1-c1ncc(C(=O)NC2CCC(N(C)C)CC2)s1 (stereo not shown) [Example 405] |
| 7.52 | COc1c(Nc2cc(NC(=O)C3CC3)nnc2C(N)=O)cccc1-c1noc([C@@H]2[C@H](O)CCN2S(C)(=O)=O)n1 [Example 66] |
| 5.41 | [2H]C([2H])([2H])NC(=O)c1nnc(NC(=O)C2CC2)cc1Nc1cccc(-c2noc(CCC(=O)NCCC3CCCN3C)n2)c1OC (stereo not shown) [Example 26] |
| 6.70 | [2H]C([2H])([2H])NC(=O)c1nnc(NC(=O)C2CC2)cc1Nc1cccc(-c2nc(CN3CCN(C)CC3)no2)c1OC [Example 180] |
| 6.70 | COc1c(Nc2cc(NC(=O)C3CC3)nnc2C(N)=O)cccc1-c1ncc(C(=O)N2CCC(O)CC2)o1 [Example 419] |
| 7.22 | [2H]C([2H])([2H])NC(=O)c1cnc(Nc2cc(C)ccn2)cc1Nc1cccc(-c2noc(COCC)n2)c1OC [Example 100] |
| 6.36 | [2H]C([2H])([2H])NC(=O)c1nnc(NC(=O)C2CC2)cc1Nc1cccc(-c2nc(CN3CCC(C)CC3)no2)c1OC [Example 211] |
| 7.30 | [2H]C([2H])([2H])NC(=O)c1nnc(NC(=O)C2CC2)cc1Nc1cccc(-c2ncc(C(=O)N3CC4CN(C)CC4C3)s2)c1OC (stereo not shown) [Example 274] |
| 6.54 | [2H]C([2H])([2H])NC(=O)c1nnc(NC(=O)C2CC2)cc1Nc1cc(F)cc(-c2cc(C(C)(C)O)n(C)n2)c1OC [Example 489] |
| 5.95 | [2H]C([2H])([2H])NC(=O)c1nnc(NC(=O)C2CC2)cc1Nc1cccc(-c2nc(CN3CCN(C(=O)NCC)CC3)no2)c1OC [Example 136] |
| 5.94 | [2H]C([2H])([2H])NC(=O)c1nnc(NC(=O)C2CC2)cc1Nc1cccc(-c2nc(CCOC(C)(C)C)no2)c1OC [Example 226] |
| 6.47 | [2H]C([2H])([2H])NC(=O)c1nnc(NC(=O)C2CC2)cc1Nc1cccc(-c2nc(C)c(C(=O)N3CCC(N4CCN(CCO)CC4)CC3)s2)c1OC [Example 359] |
| 7.10 | [2H]C([2H])([2H])NC(=O)c1nnc(NC(=O)C2CC2)cc1Nc1cccc(-c2noc(COC)n2)c1OC [Example 72] |
| 6.52 | [2H]C([2H])([2H])NC(=O)c1nnc(NC(=O)C2CC2)cc1Nc1cccc(-c2nc(CN3CC4CN(C(=O)OC)CC4C3)no2)c1OC (stereo not shown) [Example 234] |
| 6.82 | [2H]C([2H])([2H])NC(=O)c1nnc(NC(=O)C2CC2)cc1Nc1cccc(-c2nc(C)c(C(=O)N3CCS(=O)(=O)CC3)s2)c1OC [Example 372] |

Reference: patent US12240840B2, “Amide-substituted heterocyclic compounds for the treatment of conditions related to the modulation of IL-12, IL-23 and/or IFN-alpha” (BRISTOL-MYERS SQUIBB COMPANY, priority 2018, dated 2025)
